# Values joined by “and” are separate entries in the source; they are usually repeats but may differ in a detail not shown here. Equal entries are not always repeated.
# How the values were obtained:
# [1] = Example 5A: plasma concentrations, population PK; assay type: in vivo, human
# Procedure: (§1) At Visit 3, blood was drawn twice, at 0.5 to 1.5 hours postdose and at 2 to 5 hours postdose, from each evaluable subject. At Visits 4, 5 and 6, blood was drawn once immediately prior to the dose for each day, and again at 0.5 to 1.5 hours postdose and at 2 to 5 hours postdose, from each evaluable subject. Blood was drawn only once for patients who took the study drug for the day before visiting the investigational site. At Visit 7, blood was drawn only once at the visit.
# [2] = tested on: LH, FSH, estradiol (E2), progesterone (P); assay: Example 5A: serum LH, FSH, E2, P; assay type: in vivo, human
# Procedure: as §1
# FIG. 6C = assay: FIG. 6C
# Procedure: Table printed on a drawing sheet, FIG. 6C
# The patent's description of the figure: FIGS. 6A-C are tables of plasma PK parameters for Cohort 7 in accordance with Example 4.
# First reader's note: Part of a plasma PK table series (FIGS. 6A-C) for Cohort 7; each column is a fed or fasted 40 mg arm.
# FIG. 7D = assay: FIG. 7D
# From the text: Table printed on a drawing sheet, FIG. 7D
# (§2) The patent's description of the figure: FIGS. 7A-F are tables of plasma PK parameters for Cohorts 8 to 10 in accordance with Example 4.
# FIG. 7E = assay: FIG. 7E
# From the text: Table printed on a drawing sheet, FIG. 7E
# as §2
# First reader's note: Each column is a dose group; according to the description these are plasma PK parameters on Day 14 (Cohorts 8 to 10).
# FIG. 13 = assay: FIG. 13
# From the text: Table printed on a drawing sheet, FIG. 13
# The patent's description of the figure: FIG. 13 is a table of urine PK parameters for Cohorts 8 to 10 on Day 14 of the treatment period in accordance with Example 4.
# First reader's note: Per the description these are urine PK parameters for Cohorts 8 to 10 on Day 14; each column is one dose group.
# women with endometriosis = assay: Example 8A: safety (adverse events, BMD, menstruation recovery); settings: for Change from Baseline in BMD, mean: Week 24
# From the text: Study participants were premenopausal (≥20 years) Japanese women with endometriosis (EM)-associated pain who completed a preceding 12-week study and were eligible to continue for an additional 12-week treatment were enrolled. The participants has confirmed normal regular menstrual cycles (25 to 38 days per cycle) and diagnosed to have EM and EM-related dysmenorrhea and pelvic pain of at least moderate severity as determined by the physician B&B scale. The primary endpoint was the safety including assessment of change in bone mineral density (BMD) using dual energy x-ray absorptiometry, adverse events, vital signs, weight, 12-lead electrocardiograms, and clinical laboratory tests.
# The present extension study consisted of an additional treatment period of 12 weeks and a follow-up period of 4 weeks. Overall treatment duration was 24 weeks from the beginning of the preceding phase 2 study. Patients were assigned to the same treatment group as the preceding phase 2 study.
# [3] = human, in vivo; cited from earlier work
smiles,measurement,setting,value
"CONC(=O)Nc1ccc(-c2sc3c(c2CN(C)C)c(=O)n(-c2ccc(OC)nn2)c(=O)n3Cc2c(F)cccc2F)cc1 [Compound 1, N-(4-(1-(2,6-difluorobenzyl)-5-((dimethylamino)methyl)-3-(6-methoxy-3-pyridazinyl)-2,4-dioxo-1,2,3,4-tetrahydrothieno[2,3-d]pyrimidin-6-yl)phenyl)-N′-methoxyurea]","increase in relative bioavailability, 40 mg vs 10 mg","[1]; human, plasma, oral, population PK, read-out: relative bioavailability higher in 40-mg compared with 10-mg",30.9%
same,absorption rate constant (ka),[1]; population estimate,0.416 h⁻¹
same,apparent oral clearance (CL/F),[1]; population estimate,198 L/h
same,median serum E2,"[2]; 10 mg, Week 2",82.5 pg/mL
same,median serum FSH,"[2]; 10 mg, Week 2",5.990 mIU/mL
same,median serum LH,"[2]; 10 mg, Week 2",3.815 mIU/mL
same,median serum P,"[2]; 10 mg, Week 2",0.315 ng/mL
same,median serum E2,"[2]; 10 mg, Week 4",58.0 pg/mL
same,median serum FSH,"[2]; 10 mg, Week 4",5.225 mIU/mL
same,median serum LH,"[2]; 10 mg, Week 4",2.565 mIU/mL
same,median serum P,"[2]; 10 mg, Week 4",0.440 ng/mL
same,median serum E2,"[2]; 10 mg, Week 8",52.0 pg/mL
same,median serum FSH,"[2]; 10 mg, Week 8",6.150 mIU/mL
same,median serum LH,"[2]; 10 mg, Week 8",3.460 mIU/mL
same,median serum P,"[2]; 10 mg, Week 8",0.360 ng/mL
same,median change in serum E2 from baseline,"[2]; 10 mg, Week 12",0.0 pg/mL
same,median change in serum FSH from baseline,"[2]; 10 mg, Week 12",−1.060 mIU/mL
same,median change in serum LH from baseline,"[2]; 10 mg, Week 12",0.420 mIU/mL
same,median change in serum P from baseline,"[2]; 10 mg, Week 12",0.080 ng/mL
same,median serum E2,"[2]; 10 mg, Week 12",57.0 pg/mL
same,median serum FSH,"[2]; 10 mg, Week 12",6.200 mIU/mL
same,median serum LH,"[2]; 10 mg, Week 12",3.550 mIU/mL
same,median serum P,"[2]; 10 mg, Week 12",0.410 ng/mL
same,median serum E2,"[2]; 20 mg, Week 2",25.0 pg/mL
same,median serum FSH,"[2]; 20 mg, Week 2",5.705 mIU/mL
same,median serum LH,"[2]; 20 mg, Week 2",2.520 mIU/mL
same,median serum P,"[2]; 20 mg, Week 2",0.235 ng/mL
same,median serum E2,"[2]; 20 mg, Week 4",23.5 pg/mL
same,median serum FSH,"[2]; 20 mg, Week 4",4.660 mIU/mL
same,median serum LH,"[2]; 20 mg, Week 4",1.750 mIU/mL
same,median serum P,"[2]; 20 mg, Week 4",0.270 ng/mL
same,median serum E2,"[2]; 20 mg, Week 8",16.0 pg/mL
same,median serum FSH,"[2]; 20 mg, Week 8",4.840 mIU/mL
same,median serum LH,"[2]; 20 mg, Week 8",2.260 mIU/mL
same,median serum P,"[2]; 20 mg, Week 8",0.250 ng/mL
same,median change in serum E2 from baseline,"[2]; 20 mg, Week 12",-18.5 pg/mL
same,median change in serum FSH from baseline,"[2]; 20 mg, Week 12",−0.720 mIU/mL
same,median change in serum LH from baseline,"[2]; 20 mg, Week 12",−0.895 mIU/mL
same,median change in serum P from baseline,"[2]; 20 mg, Week 12",-0.090 ng/mL
same,median serum E2,"[2]; 20 mg, Week 12",13.0 pg/mL
same,median serum FSH,"[2]; 20 mg, Week 12",5.710 mIU/mL
same,median serum LH,"[2]; 20 mg, Week 12",2.685 mIU/mL
same,median serum P,"[2]; 20 mg, Week 12",0.250 ng/mL
same,median serum FSH,"[2]; 40 mg, Week 2",4.280 mIU/mL
same,median serum LH,"[2]; 40 mg, Week 2",0.720 mIU/mL
same,median serum P,"[2]; 40 mg, Week 2",0.230 ng/mL
same,median serum E2,"[2]; 40 mg, Week 4",0.0 pg/mL
same,median serum FSH,"[2]; 40 mg, Week 4",3.710 mIU/mL
same,median serum LH,"[2]; 40 mg, Week 4",0.550 mIU/mL
same,median serum P,"[2]; 40 mg, Week 4",0.240 ng/mL
same,median serum E2,"[2]; 40 mg, Week 8",0.0 pg/mL
same,median serum FSH,"[2]; 40 mg, Week 8",3.210 mIU/mL
same,median serum LH,"[2]; 40 mg, Week 8",0.570 mIU/mL
same,median serum P,"[2]; 40 mg, Week 8",0.220 ng/mL
same,median change in serum E2 from baseline,"[2]; 40 mg, Week 12",-35.0 pg/mL
same,median change in serum FSH from baseline,"[2]; 40 mg, Week 12",−3.180 mIU/mL
same,median change in serum LH from baseline,"[2]; 40 mg, Week 12",−2.760 mIU/mL
same,median change in serum P from baseline,"[2]; 40 mg, Week 12",-0.060 ng/mL
same,median serum E2,"[2]; 40 mg, Week 12",0.0 pg/mL
same,median serum FSH,"[2]; 40 mg, Week 12",2.950 mIU/mL
same,median serum LH,"[2]; 40 mg, Week 12",0.650 mIU/mL
same,median serum P,"[2]; 40 mg, Week 12",0.250 ng/mL
same,CL/F (L/hr) | Mean,FIG. 6C,739.7 L/h and 445.4 L/h
same,Vz/F (L) | Mean,FIG. 6C,17932.0 L and 11042.3 L
same,Tmax (hr) | Median,FIG. 7D,0.980 h and 1.480 h and 1.000 h
same,CL/F (L/hr) | Mean,FIG. 7E,569.7 L/h and 436.3 L/h and 373.4 L/h
same,Vz/F (L) | Mean,FIG. 7E,5041.8 L and 3618.3 L and 3086.5 L
same,Ae (0-24) (ng) | Median,FIG. 13,141057.00 ng
same,CLr (L/hr) | Mean,FIG. 13,6.4821 L/h and 6.7992 L/h and 6.8776 L/h
same,Fe (%) | Mean,FIG. 13,1.335% and 1.930% and 1.955%
same,"Menstruation Recovery Period, mean",women with endometriosis; 10 mg,21 days
same,Any TEAEs,women with endometriosis; 10 mg (N = 103),89 N
same,Headache,women with endometriosis; 10 mg (N = 103),5 N
same,Hot flush,women with endometriosis; 10 mg (N = 103),12 N
same,Hyperhidrosis,women with endometriosis; 10 mg (N = 103),4 N
same,Menorrhagia,women with endometriosis; 10 mg (N = 103),11 N
same,Menstruation Irregular,women with endometriosis; 10 mg (N = 103),21 N
same,Metrorrhagia,women with endometriosis; 10 mg (N = 103),28 N
same,Nasopharyngitis,women with endometriosis; 10 mg (N = 103),31 N
same,Oligomenorrhea,women with endometriosis; 10 mg (N = 103),12 N
same,Serious TEAEs,women with endometriosis; 10 mg (N = 103),0 N
same,TEAEs Leading to Study Drug Discontinuation,women with endometriosis; 10 mg (N = 103),1 N
same,TEAEs Related to Study Drug,women with endometriosis; 10 mg (N = 103),68 N
same,"TEAEs, Mild",women with endometriosis; 10 mg (N = 103),83 N
same,"TEAEs, Moderate",women with endometriosis; 10 mg (N = 103),6 N
same,"TEAEs, Severe",women with endometriosis; 10 mg (N = 103),0 N
same,"Change from Baseline in BMD, mean",women with endometriosis; 10 mg,−1.6%
same,"Menstruation Recovery Period, mean",women with endometriosis; 20 mg,26 days
same,Any TEAEs,women with endometriosis; 20 mg (N = 100),96 N
same,Headache,women with endometriosis; 20 mg (N = 100),12 N
same,Hot flush,women with endometriosis; 20 mg (N = 100),23 N
same,Hyperhidrosis,women with endometriosis; 20 mg (N = 100),11 N
same,Menorrhagia,women with endometriosis; 20 mg (N = 100),16 N
same,Menstruation Irregular,women with endometriosis; 20 mg (N = 100),21 N
same,Metrorrhagia,women with endometriosis; 20 mg (N = 100),36 N
same,Nasopharyngitis,women with endometriosis; 20 mg (N = 100),31 N
same,Oligomenorrhea,women with endometriosis; 20 mg (N = 100),12 N
same,Serious TEAEs,women with endometriosis; 20 mg (N = 100),2 N
same,TEAEs Leading to Study Drug Discontinuation,women with endometriosis; 20 mg (N = 100),7 N
same,TEAEs Related to Study Drug,women with endometriosis; 20 mg (N = 100),88 N
same,"TEAEs, Mild",women with endometriosis; 20 mg (N = 100),82 N
same,"TEAEs, Moderate",women with endometriosis; 20 mg (N = 100),14 N
same,"TEAEs, Severe",women with endometriosis; 20 mg (N = 100),0 N
same,"Change from Baseline in BMD, mean",women with endometriosis; 20 mg,−2.6%
same,"Menstruation Recovery Period, mean",women with endometriosis; 40 mg,37 days
same,Any TEAEs,women with endometriosis; 40 mg (N = 103),98 N
same,Headache,women with endometriosis; 40 mg (N = 103),11 N
same,Hot flush,women with endometriosis; 40 mg (N = 103),55 N
same,Hyperhidrosis,women with endometriosis; 40 mg (N = 103),10 N
same,Menorrhagia,women with endometriosis; 40 mg (N = 103),15 N
same,Menstruation Irregular,women with endometriosis; 40 mg (N = 103),7 N
same,Metrorrhagia,women with endometriosis; 40 mg (N = 103),30 N
same,Nasopharyngitis,women with endometriosis; 40 mg (N = 103),31 N
same,Oligomenorrhea,women with endometriosis; 40 mg (N = 103),1 N
same,Serious TEAEs,women with endometriosis; 40 mg (N = 103),0 N
same,TEAEs Leading to Study Drug Discontinuation,women with endometriosis; 40 mg (N = 103),2 N
same,TEAEs Related to Study Drug,women with endometriosis; 40 mg (N = 103),91 N
same,"TEAEs, Mild",women with endometriosis; 40 mg (N = 103),83 N
same,"TEAEs, Moderate",women with endometriosis; 40 mg (N = 103),15 N
same,"TEAEs, Severe",women with endometriosis; 40 mg (N = 103),0 N
same,"Change from Baseline in BMD, mean",women with endometriosis; 40 mg,−4.9%
"CCNC(=O)[C@@H]1CCCN1C(=O)[C@H](CCCNC(=N)N)NC(=O)[C@H](CC(C)C)NC(=O)[C@@H](CC(C)C)NC(=O)[C@H](Cc1ccc(O)cc1)NC(=O)[C@H](CO)NC(=O)[C@H](Cc1c[nH]c2ccccc12)NC(=O)[C@H](Cc1c[nH]cn1)NC(=O)[C@@H]1CCC(=O)N1 [leuprolide acetate, reference compound]",bone mineral density decrease,[3],−2.21±1.709%
same,women with a decrease of more than 5.0% in bone mineral density,[3],10 of 157

# Reference: patent publication US11957684B2, “Treatment of heavy menstrual bleeding associated with uterine fibroids” (Sumitomo Pharma Switzerland GmbH, priority 2016, dated 2024)
